Data reported in patent US10100077B2, “6-aryl-9-glycosylpurines and use thereof” (UNIVERZITA PALACKEHO V OLOMOUCI, priority 2014, dated 2018).

Assays:
[1] = Calcein AM cytotoxicity assay, NIH3T3; format: cell-based, mouse; details: mouse, NIH3T3 fibroblasts
In short: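 K562, MCF-7 and NIH3T3 cells (10^4/well) in DMEM with 10% FBS were preincubated for 24 hrs, then given six 4-fold dilutions, usually from 166.7 μM, in duplicate for 72 hrs at 37° C. Viability was read by Calcein AM fluorescence after 1 hour, with GI50 from survival relative to control.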

[2] = tested on: Normal human dermal fibroblasts (NHDF); experiment: In vitro phototoxicity test (UVA, neutral red); format: cell-based; details: UVA 5.0 J/cm^2, 0.9-125 μmol/l or 3.9-500 μmol/l, neutral red after 24 hours
Description: Phototoxic potential of test compound was determined by modified in vitro test validated phototoxicity evaluation (Spielmann H, Balls M, Dupuis J, Pape W J, Pechovitch G, de Silva O, Holzhater H G, Clothier R, Desolle P, Gerberick F, Liebsch M, Lovell W W, Maurer T, Pfannenbecker U, Potthast J M, Csato M, Sladowski D, Steiling W, Brantom P., Toxicol In Vitro. 1998 Jun. 1; 12(3):305-27). Normal human dermal fibroblasts (NHDF) were used as an in vitro model. Cells were isolated from tissue specimens obtained from healthy patients undergoing plastic surgery at the Department of Plastic and Aesthetic Surgery (University Hospital Olomouc). The use of skin tissue was in accordance with the Ethics Committee of the University Hospital and Faculty of Medicine and Dentistry, Palacký University, Olomouc and all patients signed written informed consent. Fibroblasts were used between the 2nd and 4th passage. […]
Test compound was 6-(3-methoxybenzylamino)-9-β-D-arabinofuranosylpurine. […] Intensity of UVA radiation was evaluated before each irradiation by UVA-meter. […] After 24 hours (37° C., 5% CO2) cell damage was evaluated by neutral red (NR) incorporation into viable cells. […] After 5 minutes of intensive shaking absorbance was measured at 540 nm. […] Phototoxic effect was evaluated as % of viability of control cells that was calculated from experimental data (absorbance) according to the following equation: […]

[3] = tested on: detached leaf segments of Triticum aestivum cv. Hereward; experiment: Senescence bioassay on wheat leaf segments (chlorophyll retention); details: chlorophyll retention at maximum effective concentration, 96 h dark

## COc1cccc(CNc2ncnc3c2ncn3[C@@H]2O[C@H](CO)[C@@H](O)[C@@H]2O)c1 [6-(3-methoxybenzylamino)-9-β-D-arabinofuranosylpurine]
[1]
  GI50 at 72 h: > 100 µM
[2]
  phototoxic effect (viability after UVA): non-phototoxic
[3]
  activity (%) [10^−4 mol · l^−1 BAP = 100%]: 118 ± 2%
